Assay [1] relates to T1, Caco-2 maltase (maltose-hydrolysis activity of α-glucosidase).
T1 construct: gene SI; native enzyme on the apical side of differentiated Caco-2 monolayer
As to the kind of experiment: maltose hydrolysis on Caco-2 monolayer, liberated glucose by glucose oxidase. Format: cell-based, Homo sapiens. The settings on record: 28 mM maltose in PBS; 37 °C, 2 h; reversible.

In assay [2] the target is T2, rat intestinal α-glucosidase (maltase activity).
T2 construct: gene Mgam; crude native enzyme solution from rat intestinal acetone powder (Sigma-Aldrich); maltose hydrolysis; not purified
As to the kind of experiment: maltose hydrolysis, liberated glucose by glucose oxidase. Format: biochemical. As to conditions: maltose 3.5 mM stock (0.35 of 0.5 mL); 0.1 M potassium phosphate pH 6.3; 37 °C, 15 min; crude enzyme.

Structures are written as SMILES. Values after ≈ are worked out from the molar mass of the structure shown.

For the compound `O=C(O)C[C@@H]1C(=O)O[C@H]2[C@@H]3OC(=O)c4cc(O)c(O)c(O)c4-c4c(cc(O)c(O)c4O)C(=O)OC[C@H]2O[C@@H](OC(=O)c2cc(O)c(O)c(O)c2)[C@@H]3OC(=O)c2cc(O)c(O)c3c2[C@H]1[C@H](O)C(=O)O3` [chebulagic acid], the “% inhibition at 0.5 mM/well” value in assay [1] was 73%. The IC50 in assay [2] came to 37 µg/mL (≈ 38.8 µM).

Usually % inhibition stands for the change of the read-out against control, counted positive when it falls. As usually defined, the IC50 is the concentration at which inhibition is half-maximal.

Source of the values: paper PMC3382786, “Anti-Hyperglycemic Effect of Chebulagic Acid from the Fruits of Terminalia chebula Retz” (International Journal of Molecular Sciences, 2012).
